Laboratory results as given in PMC6009858, “Tricyclic coumarin sulphonate derivatives with alkaline phosphatase inhibitory effects: in vitro and docking studies” (Journal of Enzyme Inhibition and Medicinal Chemistry, 2018).

Legend:
[1] = target: T1, human tissue nonspecific alkaline phosphatase (h-TNAP) (Homo sapiens, UniProt P05186); experiment: Alkaline phosphatase inhibition assay (h-TNAP), CDP-star luminescence; assay type: biochemical; settings: for IC50: IC50 ± SEM, n = 3, DEA buffer; for selectivity h-TNAP over h-IAP (in words): h-TNAP versus h-IAP
T1 sequence (P05186 18-524): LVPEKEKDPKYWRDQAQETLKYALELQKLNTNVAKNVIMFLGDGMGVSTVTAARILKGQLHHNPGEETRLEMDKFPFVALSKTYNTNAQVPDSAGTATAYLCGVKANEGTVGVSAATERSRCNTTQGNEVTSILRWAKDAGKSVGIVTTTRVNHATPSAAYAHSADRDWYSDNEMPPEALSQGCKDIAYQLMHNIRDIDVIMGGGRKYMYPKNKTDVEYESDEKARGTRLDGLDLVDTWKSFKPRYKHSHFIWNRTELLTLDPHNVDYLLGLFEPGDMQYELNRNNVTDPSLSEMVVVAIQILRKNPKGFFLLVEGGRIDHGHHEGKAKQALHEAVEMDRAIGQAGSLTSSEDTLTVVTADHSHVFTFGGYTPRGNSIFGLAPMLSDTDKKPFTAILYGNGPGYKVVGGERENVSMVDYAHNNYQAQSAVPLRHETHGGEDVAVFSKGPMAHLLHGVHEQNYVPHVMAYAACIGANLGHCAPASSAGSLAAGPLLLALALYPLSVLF
Protocol: The inhibition assay was performed by following the already reported method[18] and the inhibitory activity was measured at the final concentration of 200 µM in diethanolamine (DEA) buffer as discussed in our published article. The first step of the inhibition assay was the treatment of 10 µl of tested derivatives with 20 µl of h-TNAP (46 ng/well) or of h-IAP (57 ng/well). […] Then, 20 µl of CDP-star® substrate was added to each reaction mixture and signals were again measured as after-read, after 15–20 min of incubation. The data were scrutinised by PRISM 5.0 (GraphPad, San Diego, CA) software and the inhibitory concentration values (IC50 values) were attained as discussed earlier.

[2] = target: T2, human intestinal alkaline phosphatase (h-IAP) (Homo sapiens, UniProt P09923); experiment: Alkaline phosphatase inhibition assay (h-IAP), CDP-star luminescence; assay type: biochemical; settings: for IC50: IC50 ± SEM, n = 3, DEA buffer
T2 sequence (P09923 20-528): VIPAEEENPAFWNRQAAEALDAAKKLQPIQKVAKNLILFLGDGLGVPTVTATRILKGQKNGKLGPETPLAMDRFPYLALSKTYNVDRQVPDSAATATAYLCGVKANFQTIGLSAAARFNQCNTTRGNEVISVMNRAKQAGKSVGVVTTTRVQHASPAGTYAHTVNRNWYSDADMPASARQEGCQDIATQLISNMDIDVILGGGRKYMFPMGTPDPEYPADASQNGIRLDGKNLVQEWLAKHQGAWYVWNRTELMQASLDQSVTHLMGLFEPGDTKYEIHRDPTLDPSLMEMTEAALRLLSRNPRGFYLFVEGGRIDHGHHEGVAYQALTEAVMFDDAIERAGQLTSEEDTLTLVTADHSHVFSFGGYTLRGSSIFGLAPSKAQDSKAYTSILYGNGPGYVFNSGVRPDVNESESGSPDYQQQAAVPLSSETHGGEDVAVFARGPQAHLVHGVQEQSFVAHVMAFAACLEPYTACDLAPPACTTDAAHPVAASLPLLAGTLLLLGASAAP
Protocol: The inhibition assay was performed by following the already reported method[18] and the inhibitory activity was measured at the final concentration of 200 µM in diethanolamine (DEA) buffer as discussed in our published article. The first step of the inhibition assay was the treatment of 10 µl of tested derivatives with 20 µl of h-TNAP (46 ng/well) or of h-IAP (57 ng/well). The plates were incubated at 37 °C for 5–10 min, and luminescence signals were recorded by microplate reader (BioTek FLx800, Instruments, Inc., Winooski, VT). Then, 20 µl of CDP-star® substrate was added to each reaction mixture and signals were again measured as after-read, after 15–20 min of incubation. The data were scrutinised by PRISM 5.0 (GraphPad, San Diego, CA) software and the inhibitory concentration values (IC50 values) were attained as discussed earlier.

colon cancer cell line = system: colon cancer cell line; set-up: method as in PMID 24360561, PMID 25016229, PMID 27779319; settings: previously reported data; cited from earlier work
[3] = set-up: method as in PMID 24360561, PMID 25016229, PMID 27779319; settings: previously reported data; cited from earlier work

SMILES | IC50 [1] [µM] | IC50 [2] [µM] | also measured
COc1cc2c3c(c(=O)oc2cc1OS(=O)(=O)c1ccc(C)cc1)CCCCCC3 [Compound 1v] | 0.64 ± 0.02 | 1.45 ± 0.04 | –
N[C@@H](Cc1ccccc1)C(=O)O [L-Phenylalanine, reference compound] | – | 100 | –
CCS(=O)(=O)Oc1ccc2c3c(c(=O)oc2c1)CCCCC3 [Compound 1b] | 2.13 ± 0.19 | 2.71 ± 0.23 | –
COc1cc2c3c(c(=O)oc2cc1OS(C)(=O)=O)CCCCCC3 [Compound 1p] | 1.49 ± 0.13 | 1.51 ± 0.17 | –
O=c1oc2cc(OS(=O)(=O)c3ccccc3)c(Cl)cc2c2c1CCCCC2 [Compound 1z] | 5.73 ± 1.06 | > 100 | selectivity h-TNAP over h-IAP (in words) [1]: selective inhibitors of h-TNAP; activity towards h-IAP (in words) [2]: inactive
CCCS(=O)(=O)Oc1cc2oc(=O)c3c(c2cc1OC)CCCCC3 [Compound 1q] | 4.31 ± 0.99 | > 100 | selectivity h-TNAP over h-IAP (in words) [1]: selective inhibitors of h-TNAP
COc1cc2c3c(c(=O)oc2cc1OS(=O)(=O)c1ccc(C(F)(F)F)cc1)CCCCC3 [Compound 1w] | > 100 | > 100 | –
O=c1oc2cc(OS(=O)(=O)c3ccc(F)cc3)ccc2c2c1CCCCC2 [Compound 1i] | 1.06 ± 0.11 | 0.45 ± 0.09 | melting point: 147 to 149 °C; antiproliferative effect against colon cancer cell line (in words) (colon cancer cell line): strongest antiproliferative derivatives; anti-inflammatory effects (in words) [3]: maximum anti-inflammatory effects
CCCS(=O)(=O)Oc1cc2oc(=O)c3c(c2cc1OC)CCCCCC3 [Compound 1r] | 2.6 ± 0.49 | 0.75 ± 0.07 | –
COc1cc2c3c(c(=O)oc2cc1OS(=O)(=O)c1ccccc1)CCCCCC3 [Compound 1t] | 2.68 ± 0.18 | 0.83 ± 0.06 | –
COc1cc2c3c(c(=O)oc2cc1OS(=O)(=O)c1ccccc1)CCCCC3 [Compound 1s] | 1.26 ± 0.07 | 3.88 ± 0.32 | –
CCCS(=O)(=O)Oc1ccc2c3c(c(=O)oc2c1)CCCCCC3 [Compound 1k] | 1.91 ± 0.11 | 3.37 ± 0.79 | –
O=c1oc2cc(OS(=O)(=O)c3ccccc3)ccc2c2c1CCCCC2 [Compound 1e] | 8.57 ± 0.73 | 1.84 ± 0.19 | –
Cc1ccc(S(=O)(=O)Oc2ccc3c4c(c(=O)oc3c2)CCCCCC4)cc1 [Compound 1m] | 1.59 ± 0.16 | 2.12 ± 0.23 | antiproliferative effect against colon cancer cell line (in words) (colon cancer cell line): strongest antiproliferative derivatives; anti-inflammatory effects (in words) [3]: maximum anti-inflammatory effects
O=c1oc2cc(OS(=O)(=O)c3ccccc3)ccc2c2c1CCCCCC2 [Compound 1l] | 1.13 ± 0.21 | 2.82 ± 0.82 | –
COc1cc2c3c(c(=O)oc2cc1OS(=O)(=O)c1ccc(C)cc1)CCCCC3 [Compound 1u] | 1.65 ± 0.13 | 0.79 ± 0.05 | –
CCS(=O)(=O)Oc1ccc2c3c(c(=O)oc2c1)CCCCCC3 [Compound 1j] | 1.74 ± 0.14 | 0.84 ± 0.09 | –
CS(=O)(=O)Oc1ccc2c3c(c(=O)oc2c1)CCCCC3 [Compound 1a] | 0.48 ± 0.01 | 1.98 ± 0.19 | –
Cc1ccc(S(=O)(=O)Oc2cc3oc(=O)c4c(c3cc2Cl)CCCCC4)cc1 [Compound 1za] | 2.22 ± 0.27 | 1.11 ± 0.01 | –
CS(=O)(=O)Oc1cc2oc(=O)c3c(c2cc1Cl)CCCCC3 [Compound 1y] | > 100 | > 100 | activity towards h-IAP (in words) [2]: inactive
CCCS(=O)(=O)Oc1ccc2c3c(c(=O)oc2c1)CCCCC3 [Compound 1c] | 1.52 ± 0.17 | 0.91 ± 0.06 | –
COc1cc2c3c(c(=O)oc2cc1OS(=O)(=O)c1ccc(C(F)(F)F)cc1)CCCCCC3 [Compound 1x] | 1.29 ± 0.12 | 1.63 ± 0.19 | –
Cc1ccc(S(=O)(=O)Oc2ccc3c4c(c(=O)oc3c2)CCCCC4)cc1 [Compound 1f] | 0.38 ± 0.01 | 1.94 ± 0.11 | –
COc1cc2c3c(c(=O)oc2cc1OS(C)(=O)=O)CCCCC3 [Compound 1o] | 1.21 ± 0.11 | 11.8 ± 1.91 | –
O=c1oc2cc(OS(=O)(=O)C3CC3)ccc2c2c1CCCCC2 [Compound 1d] | 0.98 ± 0.13 | 0.96 ± 0.08 | –
